Here are results for two compounds from patent publication US12552824B2, “C-mannoside compounds useful for the treatment of urinary tract infections” (GLAXOSMITHKLINE INTELLECTUAL PROPERTY DEVELOPMENT LIMITED, priority 2018, dated 2026).

As usually defined, the bioavailability is dose-corrected exposure relative to a reference, in per cent. What is called AUC is concentration integrated over time. A high value points to high exposure.

Data set [1] concerns the target T1, FimH (Escherichia coli, UniProt Q1R2J4).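 Also: concentration in nM.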
T1 construct: endogenous in cells; host or cells: E. coli UTI89 whole bacteria, agglutinating guinea pig red blood cells
It counts as cell-based. Particulars: concentration reducing bacterial agglutination of guinea pig red blood cells by greater than 90%; UTI89 bacteria. An outline of the steps: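 Hemagglutination inhibition using uropathogenic E. coli UTI89 and guinea pig red blood cells.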

A short description of data set [2]: Rat pharmacokinetics: IV infusion 1 mg/kg, then PO 5 mg/kg; blood and urine by LC-MS/MS. It is filed as in vivo, Male Wistar Han rats. The settings on record: for Ue % po: percentage of oral dose (5 mg/kg) eliminated unchanged in urine. The text has this: General Assays for Obtaining AUC Oral h*μm, % F, and Ue % PO Values
Male Wistar Han rats were purchased from Vital River Laboratory Animal Technology Co. Ltd (Beijing, China). The animals were approx. 6-8 weeks old with body weights of 200-300 g on the dosing date. The animals were housed in a 12-hour light/12-hour dark cycle environment and had free access to food and water. All animals were fed prior to dosing. Studies were approved by the Pharmaron Institutional Animal Care and Use Committee (IACUC).
Test article was administered as an intravenous infusion for 1 hour (1 mg/kg) at 5 mL/kg/h. After 48 h, animals received a single oral dose (5 mg/kg, free form) at a dose volume of 10 mL/kg, respectively. Blood samples were collected at various time points after IV infusion and PO administrations. Urine samples were collected at various time points after IV infusion and PO administrations.
Test article was dissolved in DMSO with vortexing and sonification to obtain a stock solution. An aliquot of the stock solution was mixed with 10% HP-β-CD in saline with vortexing to obtain a solution with concentration at 0.2 mg/mL of test article.
Test article was added into 1% Methyl Cellulose with vortexing and sonication to obtain a homogeneous suspension with concentration at 0.5 mg/mL of test article.
For IV infusion (1 mg/kg) administration, blood samples were collected from each animal at 0, 0.25, 0.5, 0.75, 1, 1.08, 1.25, 1.5, 1.75, 2, 3, 5, 8, 12, 24 hour post-dose.
For PO (5 mg/kg) administration, blood samples were collected from each animal at 0, 0.25, 0.5, 1, 1.5, 2, 3, 4, 6, 8, 12, 24 hour post-dose.
Blood samples (50 μL) were collected from each animal via jugular vein. These blood samples were placed into tubes containing K2EDTA. Whole blood was mixed with same volume of water and inverted several times. The blood samples were stored at −75±15° C. until analysis.
For IV infusion (1 mg/kg) administration, urine samples were collected from each animal at 0-4, 4-8, 8-12, 12-24 hour post-dose.
For PO (5 mg/kg) administration, urine samples were collected from each animal at 0-4, 4-8, 8-12, 12-24 hour post-dose.
Urine samples were collected continuously into containers maintained over dry ice at the intervals outlined below and stored at −80° C. prior to analysis.
55 μL of standards, 55 μL of QC samples or 55 μL of unknown samples (50 μL of blood or urine with 5 μL 50% acetonitrile) were mixed to 200 μL of acetonitrile containing IS (dexamethasone) to precipitate proteins. Then the samples were vortexed for 30 sec. After centrifugation at 4° C., 4700 rpm for 30 min, and 5 μL of the supernatant was injected into the LC-MS/MS system for quantitative analysis.
Test article blood and urine concentrations for each animal following IV infusion at 1 mg/kg and PO at 5 mg/kg were used to calculate pharmacokinetic parameters by employing a non-compartmental analysis (Phoenix™ WinNonlin® 7.0). The linear trapezoidal algorithm was used for AUC calculation.

Take `OC[C@H]1O[C@H]([C@H](O)c2c(F)cc(-c3cc(F)cc(F)c3)cc2C(F)(F)F)[C@@H](O)[C@@H](O)[C@@H]1O` [Example 32]: in data set [1], the “HAI titer EC > 90” value is ““++++” (<50 “++++”)”. Besides, in data set [2] (oral bioavailability, ratio of dose-normalised AUC PO (5 mg/kg) and IV infusion (1 mg/kg)), the “% F” value is ““++” (10 <= x <= 30%)”. Further, in data set [2], the Ue % po entry is ““++” (0.5 <= x <= 5%)”.
Turning to `Cc1cc(-c2cc(F)cc(C(F)(F)F)c2)ccc1[C@@H](O)[C@H]1O[C@H](CO)[C@@H](O)[C@H](O)[C@@H]1O` [Example 6, (2R,3S,4S,5S,6R)-2-((R)-(3′-Fluoro-3-methyl-5′-(trifluoromethyl)-[1,1′-biphenyl]-4-yl)(hydroxy)methyl)-6-(hydroxymethyl)tetrahydro-2H-pyran-3,4,5-triol], the “HAI titer EC > 90” value in data set [1] is ““++++” (<50 “++++”)”. Moreover, in data set [2] (male, Wistar Han, whole blood, oral bioavailability, ratio of dose-normalised AUC PO (5 mg/kg) and IV infusion (1 mg/kg)), the bioavailability fell in the range of 10 to 30%. For the same compound, the Ue % po entry in data set [2] is ““++” (0.5 <= x <= 5%)”. In data set [2] (whole blood, area under blood concentration-time profile, PO 5 mg/kg, male Wistar Han rats, n = 3), this compound displayed an AUC of less than 0.5 µM·h.
